Results on eleven compounds are retold here after patent publication US20250163104A1, “MACROCYCLIC IMMUNOMODULATORS” (priority 2021, published 2025).

Where a SMILES comes first, the peptide text is derived from it. Bridges are numbered along the chain shown (N, C = ends). [ ]: non-standard residue; d: D form. The star is where a group is joined. Phe(2-CF3) = N[C@@H](Cc1ccccc1C(F)(F)F)C(=O)O; Phe(3,4-F2) = N[C@@H](Cc1ccc(F)c(F)c1)C(=O)O; Bip = N[C@@H](Cc1ccc(-c2ccccc2)cc1)C(=O)O; Phe(3-Cl) = N[C@@H](Cc1cccc(Cl)c1)C(=O)O; Phe(2-CN) = N#Cc1ccccc1C[C@H](N)C(=O)O; Phe(2-Cl) = N[C@@H](Cc1ccccc1Cl)C(=O)O; Phe(2-F) = N[C@@H](Cc1ccccc1F)C(=O)O; Phe(2-Me) = Cc1ccccc1C[C@H](N)C(=O)O; Cha = N[C@@H](CC1CCCCC1)C(=O)O; Carboxymethyl = O=C(O)C*; Orn = NCCC[C@H](N)C(=O)O; Dab = NCC[C@H](N)C(=O)O; Dap = NC[C@H](N)C(=O)O

For the assay, the target named is T1, human PD-1 / PD-L1-Ig binding on Jurkat cell line over-expressing human PD-1 (Jurkat-PD-1) (Homo sapiens, UniProt Q15116).
T1 construct: expressed in transfected cells; host or cells: Jurkat
T1 sequence (Q15116 25-288): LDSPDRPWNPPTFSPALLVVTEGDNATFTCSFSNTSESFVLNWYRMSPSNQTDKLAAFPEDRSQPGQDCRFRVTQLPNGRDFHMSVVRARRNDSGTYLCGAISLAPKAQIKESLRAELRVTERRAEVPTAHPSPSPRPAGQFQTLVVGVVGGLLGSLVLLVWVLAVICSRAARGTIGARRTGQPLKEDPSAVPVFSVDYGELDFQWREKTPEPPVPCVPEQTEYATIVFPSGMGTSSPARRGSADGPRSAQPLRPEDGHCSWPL
The experiment in a line: Jurkat-PD-1 Cell Binding High-Content Screening Assay (CBA). It counts as cell-based. Particulars: Jurkat-PD-1 cells, PE-labeled PD-L1-Ig 20 nM final; read-out: Jurkat HPD1_PDL1 IC50. Summed up: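 Jurkat-hPD-1 cells in DMEM with 10% fetal calf serum receive test compound and are held at 37° C for 2 h. PE-labeled PD-L1-Ig is added at 20 nM final and left for 1 hour. Cells are then fixed and Hoechst-stained, and binding is measured by imaging.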
For `CC(C)C[C@H]1NC(=O)[C@H](CCCN)NC(=O)[C@H](CCC(=O)O)NC(=O)[C@H](Cc2ccc(-c3ccccc3)cc2)NC(=O)[C@H](C(C)C)NC(=O)[C@H](Cc2c[nH]c3ccccc23)NC(=O)[C@H](CC(=O)O)NC(=O)[C@H](Cc2ccc(OCC(=O)O)cc2)NC(=O)[C@H](CN)NC(=O)CSC[C@@H](C(=O)N[C@@H](C)C(N)=O)NC(=O)[C@H]([C@@H](C)O)NC(=O)[C@H](C(C)C)NC(=O)[C@H](Cc2ccc(F)c(F)c2)NC(=O)[C@H](CCN)NC1=O` [Compound 1482] ({CH2CO}-[Dap]Y(Carboxymethyl)DWV[Bip]E[Orn][dL][Dab][Phe(3,4-F2)]VTCA-NH2; thioether N-14), the IC50 came to 104 nM. Turning to `CC(C)C[C@H]1NC(=O)[C@H](CCCN)NC(=O)[C@H](CCC(=O)O)NC(=O)[C@H](Cc2ccc(-c3ccccc3)cc2)NC(=O)[C@H](C(C)C)NC(=O)[C@H](Cc2c[nH]c3ccccc23)NC(=O)[C@H](CC(=O)O)NC(=O)[C@H](Cc2ccc(OCC(=O)O)cc2)NC(=O)[C@H](CN)NC(=O)CSC[C@@H](C(=O)N[C@@H](C)C(N)=O)NC(=O)[C@H]([C@@H](C)O)NC(=O)[C@H](C(C)C)NC(=O)[C@H](Cc2ccccc2Cl)NC(=O)[C@H](CCN)NC1=O` [Compound 1483] ({CH2CO}-[Dap]Y(Carboxymethyl)DWV[Bip]E[Orn][dL][Dab][Phe(2-Cl)]VTCA-NH2; thioether N-14), the IC50 is 34.8 nM.

On to `Cc1ccccc1C[C@@H]1NC(=O)[C@H](CCN)NC(=O)[C@@H](CC(C)C)NC(=O)[C@H](CCCN)NC(=O)[C@H](CCC(=O)O)NC(=O)[C@H](Cc2ccc(-c3ccccc3)cc2)NC(=O)[C@H](C(C)C)NC(=O)[C@H](Cc2c[nH]c3ccccc23)NC(=O)[C@H](CC(=O)O)NC(=O)[C@H](Cc2ccc(OCC(=O)O)cc2)NC(=O)[C@H](CN)NC(=O)CSC[C@@H](C(=O)N[C@@H](C)C(N)=O)NC(=O)[C@H]([C@@H](C)O)NC(=O)[C@H](C(C)C)NC1=O` [Compound 1484] ({CH2CO}-[Dap]Y(Carboxymethyl)DWV[Bip]E[Orn][dL][Dab][Phe(2-Me)]VTCA-NH2; thioether N-14), for which the concentration for half-maximal inhibition (IC50) is 12.3 nM.

On to `CC(C)C[C@H]1NC(=O)[C@H](CCCN)NC(=O)[C@H](CCC(=O)O)NC(=O)[C@H](Cc2ccc(-c3ccccc3)cc2)NC(=O)[C@H](C(C)C)NC(=O)[C@H](Cc2c[nH]c3ccccc23)NC(=O)[C@H](CC(=O)O)NC(=O)[C@H](Cc2ccc(OCC(=O)O)cc2)NC(=O)[C@H](CN)NC(=O)CSC[C@@H](C(=O)N[C@@H](C)C(N)=O)NC(=O)[C@H]([C@@H](C)O)NC(=O)[C@H](C(C)C)NC(=O)[C@H](Cc2ccccc2F)NC(=O)[C@H](CCN)NC1=O` [Compound 1485] ({CH2CO}-[Dap]Y(Carboxymethyl)DWV[Bip]E[Orn][dL][Dab][Phe(2-F)]VTCA-NH2; thioether N-14), for which the IC50 is 15.5 nM.

`CC(C)C[C@H]1NC(=O)[C@H](CCCN)NC(=O)[C@H](CCC(=O)O)NC(=O)[C@H](Cc2ccc(-c3ccccc3)cc2)NC(=O)[C@H](C(C)C)NC(=O)[C@H](Cc2c[nH]c3ccccc23)NC(=O)[C@H](CC(=O)O)NC(=O)[C@H](Cc2ccc(OCC(=O)O)cc2)NC(=O)[C@H](CN)NC(=O)CSC[C@@H](C(=O)N[C@@H](C)C(N)=O)NC(=O)[C@H]([C@@H](C)O)NC(=O)[C@H](C(C)C)NC(=O)[C@H](Cc2ccccc2C(F)(F)F)NC(=O)[C@H](CCN)NC1=O` [Compound 1486] ({CH2CO}-[Dap]Y(Carboxymethyl)DWV[Bip]E[Orn][dL][Dab][Phe(2-CF3)]VTCA-NH2; thioether N-14): the concentration for half-maximal inhibition (IC50) was 43.7 nM. The same measure for `CC(C)C[C@H]1NC(=O)[C@H](CCCN)NC(=O)[C@H](CCC(=O)O)NC(=O)[C@H](Cc2ccc(-c3ccccc3)cc2)NC(=O)[C@H](C(C)C)NC(=O)[C@H](Cc2c[nH]c3ccccc23)NC(=O)[C@H](CC(=O)O)NC(=O)[C@H](Cc2ccc(OCC(=O)O)cc2)NC(=O)[C@H](CN)NC(=O)CSC[C@@H](C(=O)N[C@@H](C)C(N)=O)NC(=O)[C@H]([C@@H](C)O)NC(=O)[C@H](C(C)C)NC(=O)[C@H](Cc2ccccc2C#N)NC(=O)[C@H](CCN)NC1=O` [Compound 1487] ({CH2CO}-[Dap]Y(Carboxymethyl)DWV[Bip]E[Orn][dL][Dab][Phe(2-CN)]VTCA-NH2; thioether N-14): 268 nM. In the case of `CC(C)C[C@H]1NC(=O)[C@H](CCCN)NC(=O)[C@H](CCC(=O)O)NC(=O)[C@H](Cc2ccc(-c3ccccc3)cc2)NC(=O)[C@H](C(C)C)NC(=O)[C@H](Cc2cccc(Cl)c2)NC(=O)[C@H](CC(=O)O)NC(=O)[C@H](Cc2ccc(OCC(=O)O)cc2)NC(=O)[C@H](Cc2ccccc2)NC(=O)CSC[C@@H](C(=O)N[C@@H](C)C(N)=O)NC(=O)[C@H]([C@@H](C)O)NC(=O)[C@H](C(C)C)NC(=O)[C@H](CC2CCCCC2)NC(=O)[C@H](CCN)NC1=O` [Compound 1488] ({CH2CO}-FY(Carboxymethyl)D[Phe(3-Cl)]V[Bip]E[Orn][dL][Dab][Cha]VTCA-NH2; thioether N-14) it was 10.6 nM. Turning to `CC(C)C[C@H]1NC(=O)[C@H](CCCN)NC(=O)[C@H](CCC(=O)O)NC(=O)[C@H](Cc2ccc(-c3ccccc3)cc2)NC(=O)[C@H](C(C)C)NC(=O)[C@H](Cc2cccc(Cl)c2)NC(=O)[C@H](CC(=O)O)NC(=O)[C@H](Cc2ccc(O)cc2)NC(=O)[C@H](Cc2ccncc2)NC(=O)CSC[C@@H](C(=O)N[C@@H](C)C(N)=O)NC(=O)[C@H]([C@@H](C)O)NC(=O)[C@H](C(C)C)NC(=O)[C@H](CC2CCCCC2)NC(=O)[C@H](CCN)NC1=O` [Compound 1489], the 50% inhibitory concentration (IC50) was 13.6 nM. The same measure for `CC(C)C[C@H]1NC(=O)[C@H](CCCN)NC(=O)[C@H](CCC(=O)O)NC(=O)[C@H](Cc2ccc(-c3ccccc3)cc2)NC(=O)[C@H](C(C)C)NC(=O)[C@H](Cc2cccc(Cl)c2)NC(=O)[C@H](CC(=O)O)NC(=O)[C@H](Cc2ccc(OCC(=O)O)cc2)NC(=O)[C@H](Cc2ccc(OCC(=O)O)cc2)NC(=O)CSC[C@@H](C(=O)N[C@@H](C)C(N)=O)NC(=O)[C@H]([C@@H](C)O)NC(=O)[C@H](C(C)C)NC(=O)[C@H](CC2CCCCC2)NC(=O)[C@H](CCN)NC1=O` [Compound 1490]: 20.2 nM. In the case of `CC(C)C[C@H]1NC(=O)[C@H](CCCN)NC(=O)[C@H](CCC(=O)O)NC(=O)[C@H](Cc2ccc(-c3ccccc3)cc2)NC(=O)[C@H](C(C)C)NC(=O)[C@H](Cc2cccc(Cl)c2)NC(=O)[C@H](CC(=O)O)NC(=O)[C@H](Cc2ccc(OCC(=O)O)cc2)NC(=O)[C@H](Cc2ccncc2)NC(=O)CSC[C@@H](C(=O)N[C@@H](C)C(N)=O)NC(=O)[C@H]([C@@H](C)O)NC(=O)[C@H](C(C)C)NC(=O)[C@H](CC2CCCCC2)NC(=O)[C@H](CCN)NC1=O` [Compound 1491] it was 22.6 nM; in that of `CC(C)C[C@H]1NC(=O)[C@H](CCCN)NC(=O)[C@H](CCC(=O)O)NC(=O)[C@H](Cc2ccc(-c3ccccc3)cc2)NC(=O)[C@H](C(C)C)NC(=O)[C@H](Cc2cccc(Cl)c2)NC(=O)[C@H](CC(=O)O)NC(=O)[C@H](Cc2ccc(C(=O)O)cc2)NC(=O)[C@H](Cc2ccc(OCC(=O)O)cc2)NC(=O)CSC[C@@H](C(=O)N[C@@H](C)C(N)=O)NC(=O)[C@H]([C@@H](C)O)NC(=O)[C@H](C(C)C)NC(=O)[C@H](CC2CCCCC2)NC(=O)[C@H](CCN)NC1=O` [Compound 1492], 27.4 nM.
